Experimental data as given in ChEMBL document CHEMBL6182942, “Discovery of a Selective, Novel TGF-βR1 Inhibitor GFH018 for the Treatment of Solid Tumors” (J Med Chem, 2025).
Active and inactive are the calls of the source. The calls are words filed in the database; no cut-off is given here.

Assays:
[1] = Half life in CD-1 mouse at 1 mg/kg, iv by LC-MS/MS analysis; format: ADME, organism-based; settings: in vivo
[2] = Protein binding in human plasma at 0.2 to 10 uM measured after 4 hrs by equilibrium dialysis based LC-MS/MS analysis; format: ADME, cell-free; settings: dose 0.2-10 µM, read-out: PPB (converted)
[3] = molecular target: Receptor-interacting serine/threonine-protein kinase 2 (Homo sapiens) (UniProt O43353); test: Inhibition of RIPK2 (unknown origin) assessed as residual activity at 1 uM relative to control
[4] = Intrinsic clearance in mouse hepatocytes at 1 uM measured after 90 mins by LC-MS/MS analysis; format: ADME, cell-based, Hepatocyte; settings: read-out: CLH
[5] = Half life in CD-1 mouse at 5 mg/kg, po via gavage by LC-MS/MS analysis; format: ADME, organism-based; settings: in vivo
[6] = Tmax in mouse H22 cell implanted BALB/c mouse at 15 to 50 mg/kg, po administered twice daily for 11 days; format: ADME, organism-based; settings: in vivo, dose 15-50 mg/kg, time 11 day
CT26 = test: Synergistic antitumor activity against mouse CT26 cells implanted in BALB/c mouse assessed as tumor growth inhibition at 50 mg/kg, po administered twice daily in presence of antimouse-PD-L1 antibody; format: functional; settings: read-out: TGI
[7] = Clearance in Beagle dog at 1 mg/kg, iv by LC-MS/MS analysis; format: ADME, organism-based, Canis lupus familiaris; settings: in vivo
H22 = test: Antitumor activity against mouse H22 cells implanted in BALB/c mouse assessed as tumor growth inhibition at 15 mg/kg, po administered twice daily for 11 days and measured 3 times per week during compound dosing relative to control; format: functional; settings: H22, 264 h, time 11 day, read-out: TGI
[8] = molecular target: Tyrosine-protein kinase Lck (Homo sapiens) (UniProt P06239); test: Inhibition of LCK (unknown origin) assessed as residual activity at 1 uM relative to control
[9] = Time at which unbound plasma concentration required to show cellular IC50 for inhibition of smad phosphorylation in mouse H22 cell implanted BALB/c mouse at 50 mg/kg, po administered twice daily for 11 days; format: functional; settings: time 11 day
[10] = Intrinsic clearance in cynomolgus monkey hepatocytes at 1 uM measured after 90 mins by LC-MS/MS analysis; format: ADME, cell-based, Macaca fascicularis, Hepatocyte; settings: read-out: CLH
[11] = Intrinsic clearance in dog hepatocytes at 1 uM measured after 90 mins by LC-MS/MS analysis; format: ADME, cell-based, Canis lupus familiaris, Hepatocyte; settings: read-out: CLH
[12] = Toxicity in mouse H22 cell implanted BALB/c mouse assessed as change in body weight at 15 to 50 mg/kg, po administered twice daily for 11 days measured daily during compound dosing; format: organism-based; settings: in vivo, 264 h, dose 15-50 mg/kg, time 11 day
[13] = Drug metabolism in monkey liver microsomes; format: ADME, Macaca mulatta, Microsome; settings: rhesus monkey
[14] = Cmax in CD-1 mouse at 75 mg/kg, po via gavage by LC-MS/MS analysis; format: ADME, organism-based; settings: in vivo
4T1-Luc = test: Antimetastatic activity against mouse 4T1-Luc cells implanted in BALB/c mouse assessed as reduction in metastatic rate in lung at 100 mg/kg, po administered daily for 32 days and measured on day 30 to 35 by IVIS fluorescence analysis; format: functional, organism-based; settings: time 35.0 day
MDR1 = test: Efflux ratio of apparent permeability in dog MDCK-MDR1 cells at 2 uM measured over 150 mins by LC-MS/MS analysis; format: ADME, cell-based, Canis lupus familiaris
[15] = Intrinsic clearance in rat hepatocytes at 1 uM measured after 90 mins by LC-MS/MS analysis; format: ADME, cell-based, Hepatocyte; settings: read-out: CLH
[16] = AUC (0 to last) in Sprague-Dawley rat at 30 mg/kg, po administered via gavage by LC-MS/MS analysis; format: ADME, organism-based; settings: in vivo

Receptor-interacting serine/threonine-protein kinase 2 (Homo sapiens), sequence (O43353 whole entry): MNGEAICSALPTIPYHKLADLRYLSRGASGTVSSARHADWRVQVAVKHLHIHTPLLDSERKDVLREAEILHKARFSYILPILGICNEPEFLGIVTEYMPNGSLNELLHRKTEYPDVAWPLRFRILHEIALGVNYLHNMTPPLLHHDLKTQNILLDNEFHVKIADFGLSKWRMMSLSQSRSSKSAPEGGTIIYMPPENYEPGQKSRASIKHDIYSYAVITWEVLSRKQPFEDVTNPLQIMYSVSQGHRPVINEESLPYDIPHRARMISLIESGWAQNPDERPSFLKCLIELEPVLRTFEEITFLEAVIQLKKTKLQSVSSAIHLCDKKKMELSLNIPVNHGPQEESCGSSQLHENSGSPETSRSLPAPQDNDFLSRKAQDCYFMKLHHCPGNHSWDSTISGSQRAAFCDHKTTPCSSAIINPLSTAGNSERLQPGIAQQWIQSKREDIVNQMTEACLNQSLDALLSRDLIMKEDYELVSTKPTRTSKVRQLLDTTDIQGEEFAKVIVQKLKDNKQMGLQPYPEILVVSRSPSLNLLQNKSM
Tyrosine-protein kinase Lck (Homo sapiens), sequence (P06239 2-509 limits assumed): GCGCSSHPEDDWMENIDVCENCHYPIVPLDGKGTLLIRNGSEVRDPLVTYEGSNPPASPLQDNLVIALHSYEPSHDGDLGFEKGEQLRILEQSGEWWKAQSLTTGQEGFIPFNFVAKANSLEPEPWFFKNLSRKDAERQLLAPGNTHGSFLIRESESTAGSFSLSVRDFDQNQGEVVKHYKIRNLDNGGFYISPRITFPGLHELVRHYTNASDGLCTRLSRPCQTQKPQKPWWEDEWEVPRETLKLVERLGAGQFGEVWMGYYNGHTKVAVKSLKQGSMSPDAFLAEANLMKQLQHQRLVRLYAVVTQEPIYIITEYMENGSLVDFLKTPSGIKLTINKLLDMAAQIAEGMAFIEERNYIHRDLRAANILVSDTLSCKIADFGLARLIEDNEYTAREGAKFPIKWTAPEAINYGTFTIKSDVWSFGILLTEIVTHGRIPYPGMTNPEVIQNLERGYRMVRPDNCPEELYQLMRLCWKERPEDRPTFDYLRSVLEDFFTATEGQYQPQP

With `Cc1cccc(-c2nn3c(c2-c2ccc4ncnn4c2/C=C/C(N)=O)CCC3)n1` the half-life [1] was 29 min, the fraction unbound at 4 h, up to 10 µM [2] was 0.556 and the Activity [3] was < 50%. For the same compound, the CLint scaled at […], 1 µM [4] was 298 mL/min/kg, the half-life [5] was 55 min and the Tmax [6] was 60 min. It also gave an inhibition in vivo at 50 mg/kg (CT26) of 79.4%, a clearance [7] of 9.29 mL/min/kg and an inhibition in vivo at 15 mg/kg (H22) of 50.8%. The Activity [8] was < 50%, the “T>IC50” value [9] was ~5.5 h and the CLint scaled at […], 1 µM [10] was 19.3 mL/min/kg. For the same compound, the CLint scaled at […], 1 µM [11] was < 17.1 mL/min/kg, the Activity [12] was “Non-toxic” and the Drug metabolism [13] was “metabolite_detected”. For the same compound, the Cmax [14] was 24233 nM/ml, the Activity (4T1-Luc) was “Active” and the efflux ratio at 2.5 h, 2 µM (MDR1) was 70.7. The CLint scaled at […], 1 µM [15] was 50 mL/min/kg and the AUClast [16] was 9614 nM.hr/ml.
